According to PubChem BioAssay AID200 (DTP/NCI, 2004):
Values joined by “and” are separate entries in the source; they are usually repeats but may differ in a detail not shown here. Identical values can stand only once. Toxic doses and inconclusive results are not listed.

Test system: B6C3F1 mice, B16 melanoma ip, median survival T/C
Assay: NCI In Vivo Anticancer Drug Screen. Data for tumor model B16 Melanoma (intraperitoneal) in B6C3F1 mice
Conditions: endpoint: median survival time, schedule: Q01DX009 (ip), higher = longer survival
Method in brief: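 Transplantable tumor in mice; treated vs vehicle control groups; survival or tumor size measured; value = T/C ratio.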

[1] = dose: 25.0 mg/kg/injection, vehicle: Klucel (hydroxypropylcellulose) (HPC)
[2] = dose: 50.0 mg/kg/injection, vehicle: Klucel (hydroxypropylcellulose) (HPC)
[3] = dose: 25.0 mg/kg/injection, vehicle: saline with Tween-80
[4] = dose: 50.0 mg/kg/injection, vehicle: saline with Tween-80
[5] = dose: 6.25 mg/kg/injection, vehicle: saline with Tween-80
[6] = dose: 12.5 mg/kg/injection, vehicle: saline with Tween-80
[7] = dose: 3.12 mg/kg/injection, vehicle: saline
[8] = dose: 12.5 mg/kg/injection, vehicle: saline
[9] = dose: 25.0 mg/kg/injection, vehicle: saline
[10] = dose: 50.0 mg/kg/injection, vehicle: saline

## CCC1OCC(C(Cl)CCl)O1 (configuration not stated)
[1]
  T/C: 105 % of control
[2]
  T/C: 96 % of control
dose: 100.0 mg/kg/injection, vehicle: Klucel (hydroxypropylcellulose) (HPC)
  T/C: 91 % of control
dose: 200.0 mg/kg/injection, vehicle: Klucel (hydroxypropylcellulose) (HPC)
  T/C: 98 % of control

## CCC1CC2CN(CCc3c([nH]c4ccccc34)C(C(=O)OC)(c3cc4c(cc3OC)N(C)C3C(O)(C(=O)OC)C(OC(C)=O)C5(CC)C=CCN6CCC43C65)C2)C1 (configuration not stated)
dose: 0.06 mg/kg/injection, vehicle: saline
  T/C: 111 % of control
dose: 0.06 mg/kg/injection, vehicle: suspension in saline
  T/C: 116 % of control
dose: 0.12 mg/kg/injection, vehicle: suspension in saline
  T/C: 114 % of control
dose: 0.13 mg/kg/injection, vehicle: saline
  T/C: 110 % of control
dose: 0.5 mg/kg/injection, vehicle: saline
  T/C: 175 % of control
dose: 1.0 mg/kg/injection, vehicle: saline
  T/C: 208 % of control
dose: 2.0 mg/kg/injection, vehicle: saline
  T/C: 248 % of control
dose: 2.0 mg/kg/injection, vehicle: suspension in saline
  T/C: 226 % of control

## OC1CCCC2CCC[N-]C12.OC1CCCC2CCC[N-]C12.[Mn+2] (configuration not stated)
[1]
  T/C: 109 % of control
[2]
  T/C: 102 % of control

## CCN1CSC(=S)N(CC)C1
[3]
  T/C: 94 % of control
[4]
  T/C: 94 % of control
dose: 100.0 mg/kg/injection, vehicle: saline with Tween-80
  T/C: 91 % of control

## C=C1CCC[C@@]2(C)CC[C@@H](/C(C)=C\C=C\C(C)(C)O)C[C@H]12
dose: 12.5 mg/kg/injection, vehicle: Klucel + Tween-80
  T/C: 113 % of control
dose: 25.0 mg/kg/injection, vehicle: Klucel + Tween-80
  T/C: 106 % of control
dose: 50.0 mg/kg/injection, vehicle: Klucel + Tween-80
  T/C: 107 % of control
dose: 100.0 mg/kg/injection, vehicle: Klucel + Tween-80
  T/C: 112 % of control
dose: 200.0 mg/kg/injection, vehicle: Klucel + Tween-80
  T/C: 90 % of control

## NNC(=S)N/N=C/c1ccc([N+](=O)[O-])s1
dose: 0.78 mg/kg/injection, vehicle: Klucel (hydroxypropylcellulose) (HPC)
  T/C: 105 % of control
dose: 1.56 mg/kg/injection, vehicle: Klucel (hydroxypropylcellulose) (HPC)
  T/C: 99 % of control
dose: 3.12 mg/kg/injection, vehicle: Klucel (hydroxypropylcellulose) (HPC)
  T/C: 104 % of control
dose: 6.25 mg/kg/injection, vehicle: Klucel (hydroxypropylcellulose) (HPC)
  T/C: 104 % of control

## COc1ccc(C(Cn2ccnc2)Sc2ccc(Cl)c(Cl)c2)cc1 (configuration not stated)
dose: 3.12 mg/kg/injection, vehicle: saline with Tween-80
  T/C: 94 % of control
[5]
  T/C: 92 % of control and 96 % of control and 107 % of control
[6]
  T/C: 95 % of control and 96 % of control and 103 % of control
[3]
  T/C: 95 % of control and 97 % of control and 100 % of control

## O=c1n(CC2CO2)c(=O)n(CC2CO2)c(=O)n1CC1CO1 (configuration not stated)
[7]
  T/C: 121 % of control
dose: 5.0 mg/kg/injection, vehicle: saline
  T/C: 155 % of control
[5]
  T/C: 171 % of control
dose: 6.25 mg/kg/injection, vehicle: suspension in saline
  T/C: 178 % of control and 152 % of control
dose: 10.0 mg/kg/injection, vehicle: saline
  T/C: 186 % of control
[6]
  T/C: 212 % of control and 153 % of control
[8]
  T/C: 188 % of control
dose: 12.5 mg/kg/injection, vehicle: suspension in saline
  T/C: 211 % of control and 172 % of control
dose: 20.0 mg/kg/injection, vehicle: saline
  T/C: 228 % of control
[3]
  T/C: 263 % of control and 197 % of control
[9]
  T/C: 205 % of control and 227 % of control and 170 % of control
dose: 25.0 mg/kg/injection, vehicle: suspension in saline
  T/C: 282 % of control and 235 % of control
dose: 40.0 mg/kg/injection, vehicle: saline
  T/C: 261 % of control
[4]
  T/C: 233 % of control
[10]
  T/C: 234 % of control and 172 % of control
dose: 50.0 mg/kg/injection, vehicle: suspension in saline
  T/C: 255 % of control
dose: 100.0 mg/kg/injection, vehicle: saline
  T/C: 191 % of control

## CCN1/C(=C/C(C)=C/c2sc3ccc4ccccc4c3[n+]2CC)Sc2ccc3ccccc3c21
dose: 0.02 mg/kg/injection, vehicle: saline with Tween-80
  T/C: 95 % of control
dose: 0.05 mg/kg/injection, vehicle: saline with Tween-80
  T/C: 106 % of control

## COCC(CN1CCN(c2ccccc2OC)CC1)OC (configuration not stated)
[8]
  T/C: 100 % of control
[9]
  T/C: 99 % of control
[10]
  T/C: 105 % of control

## COc1cc(NCCCCCCCNC(C)C)c2nccc(C)c2c1
[7]
  T/C: 103 % of control
dose: 6.25 mg/kg/injection, vehicle: saline
  T/C: 96 % of control
[8]
  T/C: 103 % of control
[9]
  T/C: 103 % of control

## COc1ccc2c3c1OC1C(=O)CCC4C(C2)N(C)CCC314 (configuration not stated)
dose: 31.0 mg/kg/injection, vehicle: saline
  T/C: 99 % of control
